Test results published in US6949544B2, “Inhibitors of c-Jun N-terminal kinases (JNK) and other protein kinases” (Vertex Pharmaceuticals Incorporated, priority 2001, dated 2005).

Key:
Type in all cases: biochemical
[1] = target: T1, full length recombinant human Src kinase (Homo sapiens, UniProt P12931); assay: Src inhibition assay (33P incorporation into poly Glu-Tyr)
T1 construct: full length recombinant human Src kinase; purchased Upstate Biotechnology 14-117; host or cells: baculo viral cells (baculovirus expression)
Procedure: The compounds were assayed as inhibitors of full length recombinant human Src kinase (from Upstate Biotechnology, cat. no. 14-117) expressed and purified from baculo viral cells. Src kinase activity was monitored by following the incorporation of ^33P from ATP into the tyrosine of a random poly Glu-Tyr polymer substrate of composition, Glu:Tyr=4:1 (Sigma, cat. no. P-0275). The following were the final concentrations of the assay components: 0.05 M HEPES, pH 7.6, 10 mM MgCl2, 2 mM DTT, 0.25 mg/ml BSA, 10 μM ATP (1-2 μCi ^33P-ATP per reaction), 5 mg/ml poly Glu-Tyr, and 1-2 units of recombinant human Src kinase. In a typical assay, all the reaction components with the exception of ATP were pre-mixed and aliquoted into assay plate wells. […] The assay plate was incubated at 30° C. for 10 min before initiating the reaction with ^33P-ATP. After 20 min of reaction, the reactions were quenched with 150 μl of 10% trichloroacetic acid (TCA) containing 20 mM Na3PO4. The quenched samples were then transferred to a 96-well filter plate (Whatman, UNI-Filter GF/F Glass Fiber Filter, cat no. 7700-3310) installed on a filter plate vacuum manifold. Filter plates were washed four times with 10% TCA containing 20 mM Na3PO4 and then 4 times with methanol. 200 μl of scintillation fluid was then added to each well. The plates were sealed and the amount of radioactivity associated with the filters was quantified on a TopCount scintillation counter.

[2] = target: Glycogen Synthase Kinase 3 (GSK-3) (Homo sapiens, UniProt P49841); assay: GSK-3 inhibition assay (standard coupled enzyme assay); conditions: 60 nM GSK-3, 10 μM ATP; read-out: GSK-3 Inhibitory Activity (Ki rating A-C)
Outline: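 Pyruvate kinase/lactate dehydrogenase-coupled assay with 60 nM GSK-3 and 300 μM HSSPHQp-SEDEEE peptide in HEPES pH 7.5; compound preincubated 5 min at 30 °C, reaction started with 10 μM ATP. NADH absorbance at 340 nm tracked over 5 min; IC50 from rates versus inhibitor concentration.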

[3] = target: T2, Lck kinase purified from bovine thymus (Bos taurus, UniProt Q3ZCM0); assay: Lck inhibition assay (33P incorporation into poly Glu-Tyr); conditions: 10 μM ATP; read-out: Activity in the Lck Inhibition Assay (Ki rating A-C)
T2 construct: Lck kinase purified from bovine thymus; purchased Upstate Biotechnology 14-106; host or cells: bovine thymus (tissue-purified)
Outline: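 Filter-binding radiometric assay of 33P transfer from ATP to poly Glu-Tyr (4:1, 5 mg/ml) by bovine thymus Lck in 0.05 M HEPES pH 7.6, 10 mM MgCl2, 2 mM DTT, 0.25 mg/ml BSA, 10 μM ATP. After 10 min at 30° C, reaction started with 33P-ATP, run 20 min, quenched with TCA; filter-bound radioactivity counted by scintillation.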

CDK-2/Cyclin A = CDK-2/Cyclin A (Homo sapiens, UniProt P24941); assay: CDK2 inhibition assay (standard coupled enzyme assay); conditions: 25 nM CDK-2/Cyclin A; read-out: CDK2 Inhibitory Activity (Ki rating A-C)
Outline: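 CDK-2/Cyclin A (25 nM final) started the reaction after 10-min, 30° C preincubation of compound (30 μM final) with peptide (100 μM), ATP and coupling enzymes in HEPES pH 7.5.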

Sequence of Glycogen Synthase Kinase 3 (GSK-3) (P49841 whole entry): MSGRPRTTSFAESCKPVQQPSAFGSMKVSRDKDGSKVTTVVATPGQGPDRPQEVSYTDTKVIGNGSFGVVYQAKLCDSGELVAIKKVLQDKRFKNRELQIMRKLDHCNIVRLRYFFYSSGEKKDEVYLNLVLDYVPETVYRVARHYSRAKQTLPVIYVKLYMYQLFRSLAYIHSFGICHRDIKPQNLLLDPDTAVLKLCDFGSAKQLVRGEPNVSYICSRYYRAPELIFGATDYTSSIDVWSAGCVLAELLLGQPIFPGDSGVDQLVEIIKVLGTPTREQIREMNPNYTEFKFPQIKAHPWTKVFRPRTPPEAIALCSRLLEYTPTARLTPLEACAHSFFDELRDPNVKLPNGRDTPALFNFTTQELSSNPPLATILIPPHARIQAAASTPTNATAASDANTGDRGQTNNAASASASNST
T2 sequence (Q3ZCM0 1-509): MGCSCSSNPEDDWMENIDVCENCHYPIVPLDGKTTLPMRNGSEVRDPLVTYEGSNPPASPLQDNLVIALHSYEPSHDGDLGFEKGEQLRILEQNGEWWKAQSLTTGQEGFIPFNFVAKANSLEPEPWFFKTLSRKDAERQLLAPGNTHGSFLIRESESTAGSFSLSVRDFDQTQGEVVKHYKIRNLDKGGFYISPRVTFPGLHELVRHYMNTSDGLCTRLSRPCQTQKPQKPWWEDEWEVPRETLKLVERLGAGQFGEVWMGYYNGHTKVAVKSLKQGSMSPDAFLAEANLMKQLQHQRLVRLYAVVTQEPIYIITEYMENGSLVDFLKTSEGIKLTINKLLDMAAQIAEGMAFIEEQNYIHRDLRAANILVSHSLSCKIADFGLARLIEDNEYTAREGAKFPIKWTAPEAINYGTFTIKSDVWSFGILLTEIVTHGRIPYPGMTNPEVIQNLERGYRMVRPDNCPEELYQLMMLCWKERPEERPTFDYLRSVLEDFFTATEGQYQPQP
T1 sequence (P12931 whole entry): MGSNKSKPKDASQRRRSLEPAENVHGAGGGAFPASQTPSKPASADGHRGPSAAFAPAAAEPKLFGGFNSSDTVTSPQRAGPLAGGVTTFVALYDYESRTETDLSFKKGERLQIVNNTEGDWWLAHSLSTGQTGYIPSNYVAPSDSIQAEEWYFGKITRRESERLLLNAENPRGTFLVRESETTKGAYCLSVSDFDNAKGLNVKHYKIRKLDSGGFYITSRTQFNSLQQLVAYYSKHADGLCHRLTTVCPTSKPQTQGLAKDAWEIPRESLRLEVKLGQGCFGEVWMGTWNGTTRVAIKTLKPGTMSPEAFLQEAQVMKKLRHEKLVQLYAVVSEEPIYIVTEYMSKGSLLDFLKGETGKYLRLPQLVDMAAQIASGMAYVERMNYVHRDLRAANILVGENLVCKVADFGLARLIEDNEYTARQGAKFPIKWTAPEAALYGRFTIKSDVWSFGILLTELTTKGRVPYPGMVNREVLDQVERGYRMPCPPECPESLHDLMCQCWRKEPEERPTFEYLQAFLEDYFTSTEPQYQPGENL

SMILES	Ki ([1]; 10 μM ATP, read-out: Activity in the SRC Inhibition Assay (Ki rating A-C)) [µM]	Ki [2] [µM]	Ki [3] [µM]	Ki (CDK-2/Cyclin A) [µM]	inhibition at 2 µM ([1]; at a 2 μM inhibitor concentration, read-out: Activity in the SRC Inhibition Assay (percent inhibition rating D-F)) [%]
COc1cc(-c2ccnc(Nc3ccc(N)cc3)n2)cc(OC)c1OC [Compound I-34]	> 1	0.1 to 1	> 1	> 5	–
COc1cc(-c2ccnc(Nc3cccc(N)c3)n2)cc(OC)c1OC [Compound I-57]	–	0.1 to 1	0.1 to 1	> 5	24 to 66
